Assays:
Format in all cases: biochemical
[1] = target: T1, RET V804M (Homo sapiens, UniProt P07949, V804M); experiment: In vitro kinase activity assay (mobility shift assay), RET V804M; settings: ATP 5.4 μM, reaction time 60 min
T1 construct: purchased signalchem R02-12GG
How it was run: (§1)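 Mobility-shift kinase assay in 20 mM Hepes pH 7.5, 10 mM MgCl2, EGTA, Brij35, BSA, Na3VO4, DTT, 1% DMSO. Compound was preincubated with kinase 10 min, then ATP and substrate were added for 30-240 min at room temperature. Ten 3-fold dilutions from 1000 nM final; IC50 from fitted conversion-rate inhibition.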

[2] = target: T2, SRC (Homo sapiens, UniProt P12931); experiment: In vitro kinase activity assay (mobility shift assay), SRC; settings: ATP 19 μM, reaction time 30 min
T2 construct: purchased Carna 08-173
T2 sequence (P12931 whole entry): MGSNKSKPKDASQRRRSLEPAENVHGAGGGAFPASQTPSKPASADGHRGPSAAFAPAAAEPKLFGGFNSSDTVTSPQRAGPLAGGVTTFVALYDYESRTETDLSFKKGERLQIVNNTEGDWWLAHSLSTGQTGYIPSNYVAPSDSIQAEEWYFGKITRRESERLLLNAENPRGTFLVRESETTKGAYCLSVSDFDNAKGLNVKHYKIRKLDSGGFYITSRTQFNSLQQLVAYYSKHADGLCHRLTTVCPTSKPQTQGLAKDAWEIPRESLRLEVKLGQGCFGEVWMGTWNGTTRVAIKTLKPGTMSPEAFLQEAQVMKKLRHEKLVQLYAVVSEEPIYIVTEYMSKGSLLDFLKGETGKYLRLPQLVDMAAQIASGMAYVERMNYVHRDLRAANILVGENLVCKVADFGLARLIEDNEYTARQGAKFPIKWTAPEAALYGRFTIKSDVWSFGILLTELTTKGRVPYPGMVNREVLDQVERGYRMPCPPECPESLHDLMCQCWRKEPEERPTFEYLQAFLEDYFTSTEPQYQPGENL
Experimental: (§2) The IC50 (half inhibitory concentration) values of the compounds were used as an indicator to evaluate the inhibitory effect of the compound on RET wild-type, RET mutant, TRKa, SRC, BTK and/or mutated BTK kinase.
(§3) Using the method of Mobility shift assay, the compounds were tested for inhibitory activity against the following kinases: RET wild type, RET mutant, TRKa, SRC, BTK and/or mutated BTK. The initial concentration of the test compound was 1000 nM, 3-fold dilution, 10 concentrations, detected in a well for each concentration.
(§4) 20 mM hydroxyethylpiperazineethanesulfonic acid (Hepes) (pH 7.5) buffer, 10 mM MgCl2, 1 mM ethylene glycol bis(aminoethyl ether)tetraacetic acid (EGTA), 0.02% polyoxyethylene lauryl ether (Brij35), 0.02 mg/ml […] (BSA), 0.1 mM Na3VO4, 2 mM dithiothreitol (DTT), 1% DMSO.
(§5) The test compounds were dissolved in 100% dimethyl sulfoxide (DMSO) system, and prepared as 10 mM for use, and stored in a nitrogen cabinet away from light.
(§6) • (1) Preparing 1× kinase reaction buffer. • (2) Preparation of compound concentration gradient: the initial concentration of the compounds was 1000 nM, which was diluted as 100-fold final concentration of solution in 100% dimethyl sulfoxide (DMSO) in a 384-well plate. The compound was accurately 3-fold diluted with the kinase buffer solution, 10 concentrations in total, and the final concentration was 0.0508 nM. The 100-fold final concentration of solution in 100% dimethyl sulfoxide (DMSO) was obtained by dilution in 384 source plate. The liquid separator Echo 550 was used to transfer 250 nl of 100-fold final concentration of compound to the target 384 well plate. 250 nl of DMSO was added to the positive and negative control wells. • (3) 2.5-fold final concentration of kinase solution was prepared by the 1× kinase buffer. • (4) 10 4, of 2.5-fold final concentration of kinase solution was added to the compound well and the positive control well, respectively; 10 4, of 1× kinase buffer was added to the negative control well. • (5) After centrifuging at 1000 rpm for 30 second, the reaction plate was shaken and mixed, followed by incubation at room temperature for 10 min. • (6) a mixed solution of 25/15-fold final concentration of adenosine triphosphate (ATP) and kinase substrate was prepared by 1× kinase buffer. • (7) The mixed solution (15 μL) of 25/15-fold final concentration of adenosine triphosphate (ATP) and substrate was added to initiate the reaction. • (8) 384-well plate was centrifuged at 1000 rpm for 30 second, shaken and mixed well, and then incubated at room temperature for 30-240 min. • (9) After stopping the kinase reaction, the plate was centrifugated at 1000 rpm for 30 second, shaken and mixed well. • (10)The conversion rate was read with Caliper EZ Reader.
(§7) wherein Conversion%_sample is the conversion rate reading of the sample; Conversion%_min: the mean value of negative control wells, representing the conversion rate reading of wells without enzymes; Conversion%_max: the mean value of positive control wells, representing the conversion rate reading of wells without compound inhibition.
(§8) The log value of concentration was taken as the X axis, and the percentage inhibition rate was taken as the Y axis. Graphpad 6.0 analysis software was used to fit the dose-response curve, so as to obtain the IC50 value of each compound on the enzyme activity

[3] = target: T3, RET wt (Homo sapiens, UniProt P07949); experiment: In vitro kinase activity assay (mobility shift assay), RET wild type; settings: ATP 16 μM, reaction time 60 min
T3 construct: purchased Carna 08-159
T3 sequence (P07949 29-1114): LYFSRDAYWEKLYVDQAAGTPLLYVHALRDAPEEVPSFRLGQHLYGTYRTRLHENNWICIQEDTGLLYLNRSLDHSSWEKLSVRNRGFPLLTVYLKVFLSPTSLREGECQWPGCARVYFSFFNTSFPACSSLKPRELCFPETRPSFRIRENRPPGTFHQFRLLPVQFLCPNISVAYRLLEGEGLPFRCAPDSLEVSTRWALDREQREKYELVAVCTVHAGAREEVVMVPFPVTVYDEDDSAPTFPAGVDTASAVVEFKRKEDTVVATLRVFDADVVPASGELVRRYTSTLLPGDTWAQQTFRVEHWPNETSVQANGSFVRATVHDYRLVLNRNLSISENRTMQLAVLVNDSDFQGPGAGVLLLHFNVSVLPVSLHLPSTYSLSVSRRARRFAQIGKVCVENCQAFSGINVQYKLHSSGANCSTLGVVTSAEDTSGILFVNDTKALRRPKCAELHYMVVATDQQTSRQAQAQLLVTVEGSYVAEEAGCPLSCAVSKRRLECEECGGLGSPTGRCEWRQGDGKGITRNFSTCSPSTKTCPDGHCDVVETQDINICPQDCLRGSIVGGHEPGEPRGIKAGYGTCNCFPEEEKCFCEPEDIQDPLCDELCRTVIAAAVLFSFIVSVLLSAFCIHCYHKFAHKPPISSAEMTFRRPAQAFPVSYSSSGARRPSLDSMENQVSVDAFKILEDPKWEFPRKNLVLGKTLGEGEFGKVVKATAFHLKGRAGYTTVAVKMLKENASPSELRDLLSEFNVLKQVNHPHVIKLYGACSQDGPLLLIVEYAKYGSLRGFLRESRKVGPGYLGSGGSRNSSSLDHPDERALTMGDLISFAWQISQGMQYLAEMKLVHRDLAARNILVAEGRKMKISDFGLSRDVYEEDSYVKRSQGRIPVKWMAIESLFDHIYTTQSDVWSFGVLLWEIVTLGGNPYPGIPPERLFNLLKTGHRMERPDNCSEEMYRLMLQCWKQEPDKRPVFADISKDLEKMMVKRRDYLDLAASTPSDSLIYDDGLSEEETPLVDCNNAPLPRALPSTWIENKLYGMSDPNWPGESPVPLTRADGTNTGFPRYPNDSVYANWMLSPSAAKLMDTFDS
How it was run: as §1

[4] = target: T4, TRKa (Homo sapiens, UniProt P04629); experiment: In vitro kinase activity assay (mobility shift assay), TRKa; settings: ATP 47.8 μM, reaction time 30 min
T4 construct: purchased Carna 08-186
T4 sequence (P04629 33-796): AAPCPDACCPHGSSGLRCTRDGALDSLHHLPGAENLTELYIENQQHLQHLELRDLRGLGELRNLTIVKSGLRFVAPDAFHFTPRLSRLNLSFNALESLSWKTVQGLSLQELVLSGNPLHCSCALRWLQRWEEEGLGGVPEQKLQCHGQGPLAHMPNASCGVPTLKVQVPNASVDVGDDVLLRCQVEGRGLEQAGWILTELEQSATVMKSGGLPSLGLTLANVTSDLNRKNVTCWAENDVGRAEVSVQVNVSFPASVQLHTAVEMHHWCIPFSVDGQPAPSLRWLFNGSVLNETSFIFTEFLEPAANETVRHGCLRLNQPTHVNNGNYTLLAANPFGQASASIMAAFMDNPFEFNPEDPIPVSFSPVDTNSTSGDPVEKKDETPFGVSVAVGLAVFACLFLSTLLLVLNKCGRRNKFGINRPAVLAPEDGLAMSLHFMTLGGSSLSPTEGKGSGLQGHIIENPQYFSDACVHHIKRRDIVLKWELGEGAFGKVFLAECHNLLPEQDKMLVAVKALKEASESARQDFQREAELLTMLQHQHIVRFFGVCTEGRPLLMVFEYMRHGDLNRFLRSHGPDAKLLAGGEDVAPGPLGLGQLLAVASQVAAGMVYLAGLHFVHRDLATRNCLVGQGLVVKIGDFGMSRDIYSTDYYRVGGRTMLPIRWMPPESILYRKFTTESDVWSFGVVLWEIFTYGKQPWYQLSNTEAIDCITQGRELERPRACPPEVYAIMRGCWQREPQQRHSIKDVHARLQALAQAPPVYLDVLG
How it was run: as §1

[5] = target: T5, RET G810R (Homo sapiens, UniProt P07949, G810R); experiment: In vitro kinase activity assay (mobility shift assay), RET G810R; settings: ATP 201 μM, reaction time 4 h
T5 construct: purchased Proqinase 1724-0000-1
T5 sequence (P07949 29-1114 G810R): as the sequence (P07949 29-1114) above, with G782R counted along it
How it was run: as §1

[6] = target: T6, BTK (Homo sapiens, UniProt Q06187); experiment: In vitro kinase activity assay (mobility shift assay), BTK; settings: ATP 71 μM, reaction time 30 min
T6 construct: purchased Carna 08-180
T6 sequence (Q06187 whole entry): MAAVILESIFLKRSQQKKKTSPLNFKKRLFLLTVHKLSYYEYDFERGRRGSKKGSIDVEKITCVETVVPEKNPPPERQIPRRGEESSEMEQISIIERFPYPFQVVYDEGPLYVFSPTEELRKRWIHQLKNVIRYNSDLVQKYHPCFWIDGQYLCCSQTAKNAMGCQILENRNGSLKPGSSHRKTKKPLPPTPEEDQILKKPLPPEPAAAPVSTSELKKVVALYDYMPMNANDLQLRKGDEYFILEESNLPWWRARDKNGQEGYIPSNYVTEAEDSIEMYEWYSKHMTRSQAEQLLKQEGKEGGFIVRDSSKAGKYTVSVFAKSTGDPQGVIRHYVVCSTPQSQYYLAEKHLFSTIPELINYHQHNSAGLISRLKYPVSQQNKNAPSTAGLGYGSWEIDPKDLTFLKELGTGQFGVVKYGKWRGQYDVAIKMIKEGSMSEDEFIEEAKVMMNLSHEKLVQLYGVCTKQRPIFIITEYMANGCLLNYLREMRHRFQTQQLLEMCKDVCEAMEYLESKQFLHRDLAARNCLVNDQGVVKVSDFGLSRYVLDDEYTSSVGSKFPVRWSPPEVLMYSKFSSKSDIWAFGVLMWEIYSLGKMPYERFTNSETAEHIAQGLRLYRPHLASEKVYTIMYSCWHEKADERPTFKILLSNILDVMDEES
How it was run: as §1

[7] = target: T7, BTK C481S (Homo sapiens, UniProt Q06187, C481S); experiment: In vitro kinase activity assay (mobility shift assay), BTK C481S; settings: ATP 90 μM, reaction time 30 min
T7 construct: purchased Carna 08-547
T7 sequence (Q06187 whole entry C481S): as the sequence (Q06187 whole entry) above, with C481S counted along it
Experimental: as §2, §3, §4, §5, §6, §7, §8

T1 sequence (P07949 29-1114 V804M): as the sequence (P07949 29-1114) above, with V776M counted along it

Row | Compound | IC50 [1] [nM] | IC50 [2] [nM] | IC50 [3] [nM] | IC50 [4] [nM] | IC50 [5] [nM] | IC50 [6] [nM] | IC50 [7] [nM]
1 | C[C@H]1CNC(=O)c2cnn3cc(-c4ccccc4Cl)c(nc23)NCc2cc(F)cnc2O1 [Compound 4, (S, 1^3E, 1^4E)-1^6-(2-chlorophenyl)-4^5-fluoro-6-methyl-5-oxa-2,8-diaza-1(5,3)-pyrazolo[1,5-a]pyrimidina-4(3,2)-pyridinacyclononaphan-9-one] | 161 | 0.096 | 2.2 | 294 | 21 | 3.39 | 9.84
2 | C[C@H]1CNC(=O)c2cnn3cc(-c4ccc(Oc5ccccc5)cc4)c(nc23)NCc2cc(F)cnc2O1 [Compound 10, (S, 1^3E, 1^4E)-1^6-(4-phenoxyphenyl)-4^5-fluoro-6-methyl-5-oxa-2,8-diaza-1(5,3)-pyrazolo[1,5-a]pyrimidina-4(3,2)-pyridinacyclononaphan-9-one] | > 10000 | > 10000 | 144 | > 10000 | > 10000 | > 10000 | > 10000
3 | C[C@H]1CNC(=O)c2cnn3cc(N4CCOCC4)c(nc23)NCc2cc(F)cnc2O1 [Compound 17, (S, 1^3E, 1^4E)-4^5-fluoro-6-methyl-1^6-morpholino-5-oxa-2,8-diaza-1(5,3)-pyrazolo[1,5-a]pyrimidina-4(3,2)-pyridinacyclononaphan-9-one] | – | – | > 10000 | > 10000 | – | > 10000 | > 10000
4 | CC(=O)Nc1ccc(-c2cn3ncc4c3nc2NCc2cc(F)cnc2O[C@@H](C)CNC4=O)cc1 [Compound 18] | > 10000 | > 10000 | > 10000 | – | > 10000 | > 10000 | > 10000
5 | CNC(=O)c1ccc(-c2cn3ncc4c3nc2NCc2cc(F)cnc2O[C@@H](C)CNC4=O)cc1 [Compound 19, 4-((S, 1^3E, 1^4E)-4^5-fluoro-6-methyl-9-oxo-5-oxa-2,8-diaza-1(5,3)-pyrazolo[1,5-a]pyrimidin-4(3,2)-pyridinacyclononaphan-1^6-yl)—N-methylbenz amide] | > 10000 | > 10000 | 48.9 | – | > 10000 | > 10000 | > 10000
6 | C[C@H]1CNC(=O)c2cnn3cc(-c4cnn(C)c4)c(nc23)NCc2cc(F)cnc2O1 [Compound 24] | – | – | 20 | > 10000 | – | 296 | 398
7 | C[C@H]1CNC(=O)c2cnn3c(N)c(-c4ccccc4)c(nc23)NCc2cc(F)cnc2O1 [Compound 28, (S, 1^3E, 1^4E)-1^7-amino-4^5-fluoro-6-methyl-1^6-phenyl-5-oxa-2,8-diaza-1(5,3)-pyrazolino[1,5-a]pyrimidin-4(3,2)-pyridinacyclononaphan-9-one] | 9.18 | 0.456 | 0.359 | – | 12 | 1.11 | 0.96
8 | C[C@H]1CNC(=O)c2cnn3cc(-c4ccccn4)c(nc23)NCc2cc(F)cnc2O1 [Compound 33] | – | 196 | 407 | – | – | > 10000 | –
9 | C[C@H]1CNC(=O)c2cnn3cc(-c4ccc(N5CCOC5=O)cc4Cl)c(nc23)NCc2cc(F)cnc2O1 [Compound 40, (S, 1^3E, 1^4E)-1^6-(2-chloro-4-(2-oxaoxazolidin-3-yl)phenyl)-4^5-fluoro-6-methyl-5-oxa-2,8-diaza-1(5,3)-pyrazolo[1,5-a]pyrimidin-4(3,2)-pyridinacyclononaphan-9-one] | – | 105 | 465 | – | – | 176 | –
10 | Cc1ccc(-c2c3nc4c(cnn4c2N)C(=O)NC[C@H](C)Oc2ncc(F)cc2CN3)cc1 [Example 56] | – | 0.13 | 1.2 | – | 49.7 | 1.5 | 0.96
11 | CNc1c(-c2ccccc2)c2nc3c(cnn13)C(=O)NC[C@H](C)Oc1ncc(F)cc1CN2 [Example 64, (S, 1^3E, 1^4E)-4^5-fluoro-6-methyl-1^7-(methylamino)-1^6-phenyl-5-oxa-2,8-diaza-1(5,3)-pyrazolopyrimidin-4(3,2)-pyridinacyclononaphan-9-one] | – | 61 | 128 | – | – | > 1000 | –

More lines, in order of falling IC50 [3], values ahead:

Row | IC50 [1] [nM] | IC50 [2] [nM] | IC50 [3] [nM] | IC50 [4] [nM] | IC50 [5] [nM] | IC50 [6] [nM] | IC50 [7] [nM] | Compound
12 | > 1000 | 2.1 | 105 | – | > 1000 | 48 | 104 | CNc1ccc(-c2c3nc4c(cnn4c2N)C(=O)NC[C@H](C)Oc2ncc(F)cc2CN3)cc1 [Example 54, (S, 1^3E, 1^4E)-1^7-amino-4^5-fluoro-6-methyl-1^6-(4-(methylamino)phenyl)-5-oxo-2,8-diaza-1(5,3)-pyrazolo[1,5-a]pyrimidin-4(3,2)-pyridinacyclononaphan-9-one]
13 | 76 | 3110 | 5.1 | > 10000 | 15.1 | 5180 | – | COC(=O)Nc1ccc(-c2cn3ncc4c3nc2NCc2cc(F)cnc2O[C@@H](C)CNC4=O)cc1 [Compound 30, methyl (4-((S, 1^3E, 1^4E)-4^5-fluoro-6-methyl-9-oxo-5-oxa-2,8-diaza-1(5,3)-pyrazolo[1,5-a]pyrimidin-4(3,2)-pyridinacyclononaphan-1^6-yl)phenyl) carbamate]
14 | – | 843 | 4.05 | > 10000 | 12.3 | > 10000 | – | CC(C)OC(=O)Nc1ccc(-c2cn3ncc4c3nc2NCc2cc(F)cnc2O[C@@H](C)CNC4=O)cc1 [Compound 31, iso-propyl (4-((S, 1^3E, 1^4E)-4^5-fluoro-6-methyl-9-oxo-5-oxa-2,8-diaza-1(5,3)-pyrazolo[1,5-a]pyrimidin-4(3,2)-pyridinacyclononaphan-1^6-yl)phenyl)carbamate]
15 | – | – | 1.3 | 101 | 53.7 | 1.7 | 1.45 | C[C@H]1CNC(=O)c2cnn3c(N)c(-c4ccccc4F)c(nc23)NCc2cc(F)cnc2O1 [Example 66]
16 | 3.5 | 2.8 | 1.2 | 65 | 22 | 33 | – | C[C@H]1CNC(=O)c2cnn3c(N)c(-c4ccc(NC(=O)OCC5CC5)cc4)c(nc23)NCc2cc(F)cnc2O1 [Example 63, cyclopropylmethyl (4-((S, 1^3E, 1^4E)-1^7-amino-4^5-fluoro-6-methyl-9-oxo-5-oxo-2,8-diaza-1(5,3)-pyrazolo[1,5-a]pyrimidin-4(3,2)-pyridinacyclononaphan-1^6-yl)phenyl)carbamate]
17 | 3.25 | 38.4 | 0.629 | – | 17.2 | 15.4 | 16.9 | COC(=O)Nc1ccc(-c2cn3ncc4c3nc2NCc2cc(F)cnc2O[C@@H](C)CNC4=O)c(Cl)c1 [Compound 27]
